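Briefly, cells in 96-well plates were exposed to five compound concentrations for 48 h, and endpoints were estimated by linear interpolation. TGI denotes the concentration required for complete inhibition of growth.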
Columns and labels:
Test in all cases: NCI-60 cell line screen, 48 h
HOP-62 NSCLC = test system: HOP-62 NSCLC
HT29 colon = test system: HT29 colon
DU-145 prostate = test system: DU-145 prostate
U251 CNS = test system: U251 CNS
PC-3 prostate = test system: PC-3 prostate
K-562 leukemia = test system: K-562 leukemia
786-0 renal = test system: 786-0 renal
HCT-116 colon = test system: HCT-116 colon
EKVX NSCLC = test system: EKVX NSCLC
SK-OV-3 ovarian = test system: SK-OV-3 ovarian
HS 578T breast = test system: HS 578T breast
MDA-MB-231 breast = test system: MDA-MB-231 breast
OVCAR-8 ovarian = test system: OVCAR-8 ovarian
NCI-H460 lung = test system: NCI-H460 lung
HCT-15 colon = test system: HCT-15 colon
SK-MEL-2 melanoma = test system: SK-MEL-2 melanoma
SK-MEL-28 melanoma = test system: SK-MEL-28 melanoma
HCC-2998 colon = test system: HCC-2998 colon
MDA-N = test system: MDA-N
SNB-75 CNS = test system: SNB-75 CNS
CCRF-CEM leukemia = test system: CCRF-CEM leukemia
ACHN renal = test system: ACHN renal
MALME-3M melanoma = test system: MALME-3M melanoma
MCF7 breast = test system: MCF7 breast
M14 melanoma = test system: M14 melanoma
OVCAR-3 ovarian = test system: OVCAR-3 ovarian
HOP-92 NSCLC = test system: HOP-92 NSCLC
BT-549 breast = test system: BT-549 breast
UACC-257 melanoma = test system: UACC-257 melanoma
SF-268 CNS = test system: SF-268 CNS
TK-10 renal = test system: TK-10 renal
SNB-19 CNS = test system: SNB-19 CNS
MOLT-4 leukemia = test system: MOLT-4 leukemia
NCI/ADR-RES ovarian = test system: NCI/ADR-RES ovarian
NCI-H226 lung = test system: NCI-H226 lung
SN12C renal = test system: SN12C renal
OVCAR-5 ovarian = test system: OVCAR-5 ovarian
SF-539 CNS = test system: SF-539 CNS
HL-60(TB) leukemia = test system: HL-60(TB) leukemia
T-47D breast = test system: T-47D breast
CAKI-1 renal = test system: CAKI-1 renal
OVCAR-4 ovarian = test system: OVCAR-4 ovarian
RXF 393 renal = test system: RXF 393 renal
SR leukemia = test system: SR leukemia
RPMI-8226 leukemia = test system: RPMI-8226 leukemia
UO-31 renal = test system: UO-31 renal
SF-295 CNS = test system: SF-295 CNS
COLO 205 colon = test system: COLO 205 colon
NCI-H522 lung = test system: NCI-H522 lung
IGROV1 ovarian = test system: IGROV1 ovarian
NCI-H23 lung = test system: NCI-H23 lung
KM12 colon = test system: KM12 colon
A498 renal = test system: A498 renal
A549 NSCLC = test system: A549 NSCLC
LOX IMVI melanoma = test system: LOX IMVI melanoma
SK-MEL-5 melanoma = test system: SK-MEL-5 melanoma
SW-620 colon = test system: SW-620 colon
UACC-62 melanoma = test system: UACC-62 melanoma
MDA-MB-435 = test system: MDA-MB-435

Question: Which results are given for `CCCn1c(CN(Cc2nc3ccccc3n2CCC)Cc2nc3ccccc3n2CCC)nc2ccccc21`?
Answer: TGI (HOP-62 NSCLC): > 91 µM; TGI (HT29 colon): > 41.1 µM; TGI (DU-145 prostate): > 88.5 µM; TGI (U251 CNS): > 100 µM; TGI (PC-3 prostate): 18.9 µM; TGI (K-562 leukemia): 32.1 µM; TGI (786-0 renal): > 32.3 µM; TGI (HCT-116 colon): 13.6 µM; TGI (EKVX NSCLC): 40.4 µM; TGI (SK-OV-3 ovarian): > 100 µM; TGI (HS 578T breast): > 95.2 µM; TGI (MDA-MB-231 breast): 7.86 µM; TGI (OVCAR-8 ovarian): > 100 µM; TGI (NCI-H460 lung): 18.5 µM; TGI (HCT-15 colon): > 43.4 µM; TGI (SK-MEL-2 melanoma): 35.4 µM; TGI (SK-MEL-28 melanoma): 38.1 µM; TGI (HCC-2998 colon): 30 µM; TGI (MDA-N): 25.1 µM; TGI (SNB-75 CNS): 75.1 µM; TGI (CCRF-CEM leukemia): 21.7 µM; TGI (ACHN renal): > 100 µM; TGI (MALME-3M melanoma): 23.3 µM; TGI (MCF7 breast): > 29.2 µM; TGI (M14 melanoma): 42 µM; TGI (OVCAR-3 ovarian): > 30.4 µM; TGI (HOP-92 NSCLC): 13.3 µM; TGI (BT-549 breast): > 58.4 µM; TGI (UACC-257 melanoma): > 42.5 µM; TGI (SF-268 CNS): 27.9 µM; TGI (TK-10 renal): > 100 µM; TGI (SNB-19 CNS): > 100 µM; TGI (MOLT-4 leukemia): 40.8 µM; TGI (NCI/ADR-RES ovarian): > 100 µM; TGI (NCI-H226 lung): 27.3 µM; TGI (SN12C renal): 6.81 µM; TGI (OVCAR-5 ovarian): > 89.9 µM; TGI (SF-539 CNS): > 50.9 µM; TGI (HL-60(TB) leukemia): 4.46 µM; TGI (T-47D breast): 28.6 µM; TGI (CAKI-1 renal): > 29 µM; TGI (OVCAR-4 ovarian): 26.1 µM; TGI (RXF 393 renal): 8.96 µM; TGI (SR leukemia): 11.8 µM; TGI (RPMI-8226 leukemia): 5.36 µM; TGI (UO-31 renal): 34.3 µM; TGI (SF-295 CNS): 30.7 µM; TGI (COLO 205 colon): 13 µM; TGI (NCI-H522 lung): > 59.9 µM; TGI (IGROV1 ovarian): 16.7 µM; TGI (NCI-H23 lung): > 49.6 µM; TGI (KM12 colon): 21.8 µM; TGI (A498 renal): > 64.1 µM; TGI (A549 NSCLC): > 64.4 µM; TGI (LOX IMVI melanoma): 18.9 µM; TGI (SK-MEL-5 melanoma): 18.1 µM; TGI (SW-620 colon): > 100 µM; TGI (UACC-62 melanoma): 18.3 µM; TGI (MDA-MB-435): 15.3 µM

— PubChem BioAssay (NCI)
